Experimental findings from US20260068885A1, “HERBICIDAL COMPOSITIONS” (BAYER AKTIENGESELLSCHAFT, priority 2022, published 2026) are described below.

What all share (experiment): Post-emergence herbicidal action against harmful plants (greenhouse)
Assay type in all cases: in vivo

The subject of experiment [1] is Sorghum halepense (SORHA). The procedure:
(§1) Seeds of monocotyledonous and dicotyledonous weed and crop plants are laid out in sandy loam soil in wood-fibre pots, covered with soil and cultivated in a greenhouse under good growth conditions. 2 to 3 weeks after sowing, the test plants are treated at the one-leaf stage. The compounds of the invention, formulated in the form of wettable powders (WP) or as emulsion concentrates (EC), are then sprayed onto the green parts of the plants in the form of an aqueous suspension or emulsion at a water application rate equivalent to 600 to 800 l/ha, with addition of 0.2% wetting agent. After the test plants have been left to stand in the greenhouse under optimal growth conditions for about 3 weeks, the action of the preparations is assessed visually in comparison to untreated controls (herbicidal action in percent (%): 100% activity=the plants have died, 0% activity=like control plants). […] The tables below illustrate, in an illustrative manner, the post-emergence herbicidal action of the compounds of the invention, the herbicidal activity being stated in percent.
(§2) In the tables that follow, the abbreviations mean the following: • E: means the synergism value to be expected according to the Colby formula. • Δ SYN: means the difference between the actual and expected synergism value. • DAT: means days after treatment.

The test system of experiment [2] is Brachiaria platyphylla (BRAPP). The procedure:
as §1, §2

The test system of another experiment is Emex australis (EMEAU). The procedure:
as §1, §2

The subject of the next experiment is Solanum nigrum (SOLNI). The procedure: as §1, with “[…],” for “left to stand in the greenhouse under optimal growth conditions for about 3 weeks,”
as §2

Experiment [3] relates to Abutilon theophrasti (ABUTH). The procedure:
as §1, with “[…],” for “left to stand in the greenhouse under optimal growth conditions for about 3 weeks,”
as §2

The next experiment has as its system Setaria viridis (SETVI). The procedure:
as §1, with “[…],” for “left to stand in the greenhouse under optimal growth conditions for about 3 weeks,”
as §2

For experiment [4], the system named is Euphorbia heterophylla (EPHHL). The conditions noted are these: EPHHL 21 DAT. The procedure:
as §1, §2

Experiment [5] deals with Pharbitis purpurea (PHBPU).
The test system of experiment [6] is Erigeron bonariensis (ERIBO). The procedure:
as §1, with “[…],” for “left to stand in the greenhouse under optimal growth conditions for about 3 weeks,”
as §2

For experiment [7], the system named is Polygonum convolvulus (POLCO).
The next experiment has as its system Cyperus iria (CYPIR). The procedure:
as §1, with “[…],” for “left to stand in the greenhouse under optimal growth conditions for about 3 weeks,”
as §2

In the case of `Nc1c(F)c(-c2ccc3cc[nH]c3c2F)nc(C(=O)O)c1Cl` [P3, 4-amino-3-chloro-5-fluoro-6-(7-fluoro-1H-indol-6-yl)pyridine-2-carboxylic acid], the entries for the “Herbicidal efficacy [%] against SORHA 10 DAT” value in experiment [1] (application rate 0.3 g a.i./ha) and in [1] (application rate 1.2 g a.i./ha) were 30% and 60%, respectively. For the same compound, the “Herbicidal efficacy [%] against SORHA 21 DAT” value in experiment [1] (application rate 0.3 g a.i./ha) is 10%; in experiment [1] (application rate 1.2 g a.i./ha), 30%. The Herbicidal efficacy came out at 70% in experiment [2] (BRAPP 10 DAT, 0.3 g a.i./ha); 60% in [2] (BRAPP 21 DAT, 0.3 g a.i./ha); 75% in experiment [2] (BRAPP 21 DAT, 1.2 g a.i./ha); 70% in the experiment with Emex australis (EMEAU) (EMEAU 21 DAT, 1.2 g a.i./ha); 85% in the experiment on Solanum nigrum (SOLNI) (SOLNI 21 DAT, 1.2 g a.i./ha); 60% in experiment [3] (ABUTH 21 DAT, 0.3 g a.i./ha). For the same compound, the Herbicidal efficacy in [3] (ABUTH 21 DAT, 1.2 g a.i./ha) was 60%; with Setaria viridis (SETVI) (SETVI 21 DAT, 0.3 g a.i./ha) it was 70%.

On to `CCOC(=O)C1(C)CC(c2cc(-n3c(=O)cc(C(F)(F)F)n(C)c3=O)c(F)cc2Cl)=NO1` (centres unmarked) [P4, ethyl 3-{2-chloro-4-fluoro-5-[3-methyl-2,6-dioxo-4-(trifluoromethyl)-3,6-dihydropyrimidin-1(2H)-yl]phenyl}-5-methyl-4,5-dihydro-1,2-oxazole-5-carboxylate], for which the Herbicidal efficacy in [4] (1 g a.i./ha) is 80%; with Emex australis (EMEAU) (EMEAU 21 DAT, 1 g a.i./ha), 70%; in the experiment on Setaria viridis (SETVI) (SETVI 10 DAT, 1 g a.i./ha) it was 88%; with Setaria viridis (SETVI) (SETVI 21 DAT, 1 g a.i./ha), 80%.

For the compound `COc1ccc(-n2nc(C)cc(C(=O)C3C(=O)CCCC3=O)c2=O)cc1OC` [dioxopyritrione], the “Herbicidal efficacy [%] against SORHA 10 DAT” value in [1] (application rate 2.5 g a.i./ha) amounted to 20%; in experiment [1] (application rate 10 g a.i./ha) it was 30%. Moreover, the “Herbicidal efficacy [%] against SORHA 21 DAT” value amounted to 0% in experiment [1] (application rate 2.5 g a.i./ha) and 10% in [1] (application rate 10 g a.i./ha). Also, the Herbicidal efficacy came out at 40% in [2] (BRAPP 10 DAT, 2.5 g a.i./ha); 70% in [2] (BRAPP 10 DAT, 10 g a.i./ha); 20% in [2] (BRAPP 21 DAT, 2.5 g a.i./ha); 30% in [2] (BRAPP 21 DAT, 10 g a.i./ha); 20% in experiment [5] (PHBPU 21 DAT, 2.5 g a.i./ha); 90% in experiment [6] (ERIBO 10 DAT, 10 g a.i./ha). For the same compound, the Herbicidal efficacy in [6] (ERIBO 21 DAT, 10 g a.i./ha) is given as 88%; in experiment [3] (ABUTH 21 DAT, 10 g a.i./ha), 80%; with Setaria viridis (SETVI) (SETVI 10 DAT, 2.5 g a.i./ha), 10%; in the experiment on Setaria viridis (SETVI) (SETVI 10 DAT, 10 g a.i./ha), 20%; in the experiment with Setaria viridis (SETVI) (SETVI 21 DAT, 2.5 g a.i./ha), 10%; with Setaria viridis (SETVI) (SETVI 21 DAT, 10 g a.i./ha), 20%. Also, the Herbicidal efficacy in experiment [7] (POLCO 10 DAT, 2.5 g a.i./ha) was 80%; in [7] (POLCO 10 DAT, 10 g a.i./ha) it was 80%; in [7] (POLCO 21 DAT, 10 g a.i./ha) it was 70%.

As to `COc1c(Cl)ccc(-c2nc(C(=O)O)c(Cl)c(N)c2F)c1F` [florpyrauxifen], the Herbicidal efficacy in experiment [4] (0.3 g a.i./ha) is on record as 90%; in [2] (BRAPP 10 DAT, 0.3 g a.i./ha), 75%; in experiment [2] (BRAPP 21 DAT, 0.3 g a.i./ha) it was 60%; in the experiment on Emex australis (EMEAU) (EMEAU 21 DAT, 1.2 g a.i./ha), 75%; in experiment [3] (ABUTH 21 DAT, 0.3 g a.i./ha), 90%; in the experiment on Setaria viridis (SETVI) (SETVI 10 DAT, 0.3 g a.i./ha), 30%. Further, the Herbicidal efficacy in the experiment on Setaria viridis (SETVI) (SETVI 21 DAT, 0.3 g a.i./ha) is 40%; in experiment [7] (POLCO 10 DAT, 1.2 g a.i./ha), 90%; in [7] (POLCO 21 DAT, 1.2 g a.i./ha), 90%. The “Herbicidal efficacy [%] against SORHA 10 DAT” value in experiment [1] (application rate 0.3 g a.i./ha) stood at 10%.

Take `FC(F)c1cc(-c2c(Cl)cccc2Oc2ncc(Cl)cn2)on1` [rimisoxafen]: the “Herbicidal efficacy [%] against SORHA 10 DAT” value in [1] (application rate 20 g a.i./ha) was determined as 10%. In addition, the “Herbicidal efficacy [%] against SORHA 21 DAT” value in [1] (application rate 20 g a.i./ha) amounted to 10%. In addition, the Herbicidal efficacy in [2] (BRAPP 10 DAT, 20 g a.i./ha) is 30%; in experiment [2] (BRAPP 21 DAT, 20 g a.i./ha) it was 20%; with Emex australis (EMEAU) (EMEAU 10 DAT, 80 g a.i./ha), 88%; in the experiment on Emex australis (EMEAU) (EMEAU 21 DAT, 80 g a.i./ha), 80%; in [5] (PHBPU 10 DAT, 20 g a.i./ha) it was 30%; in [5] (PHBPU 21 DAT, 20 g a.i./ha), 20%. Also, the Herbicidal efficacy in [6] (ERIBO 21 DAT, 20 g a.i./ha) is recorded as 10%; with Cyperus iria (CYPIR) (CYPIR 21 DAT, 20 g a.i./ha), 88%; in experiment [3] (ABUTH 10 DAT, 20 g a.i./ha), 88%; in experiment [3] (ABUTH 21 DAT, 20 g a.i./ha) it was 40%; in the experiment on Setaria viridis (SETVI) (SETVI 21 DAT, 20 g a.i./ha) it was 30%; in [7] (POLCO 21 DAT, 20 g a.i./ha) it was 60%. The Herbicidal efficacy in experiment [7] (POLCO 21 DAT, 80 g a.i./ha) worked out at 88%. Moreover, the “Herbicidal efficacy [%] against SOLNI 10 DAT” value in the experiment on Solanum nigrum (SOLNI) (application rate 80 g a.i./ha) is 88%. Also, the “Herbicidal efficacy [%] against SOLNI 21 DAT” value in the experiment on Solanum nigrum (SOLNI) (application rate 80 g a.i./ha) turned out to be 80%.

On to `CN1C[C@H](c2cccc(C(F)(F)F)c2)[C@@H](C(=O)Nc2ccccc2F)C1=O` [tetflupyrolimet], for which the “Herbicidal efficacy [%] against SORHA 10 DAT” value in experiment [1] (application rate 100 g a.i./ha) is recorded as 10%. In addition, in experiment [1] (application rate 100 g a.i./ha), the “Herbicidal efficacy [%] against SORHA 21 DAT” value stood at 0%. Moreover, the Herbicidal efficacy in experiment [2] (BRAPP 21 DAT, 400 g a.i./ha) worked out at 70%; in the experiment with Cyperus iria (CYPIR) (CYPIR 10 DAT, 400 g a.i./ha) it was 0%; in the experiment on Cyperus iria (CYPIR) (CYPIR 21 DAT, 400 g a.i./ha) it was 0%; in experiment [3] (ABUTH 10 DAT, 400 g a.i./ha), 0%; in [3] (ABUTH 21 DAT, 400 g a.i./ha), 0%; in experiment [7] (POLCO 10 DAT, 400 g a.i./ha), 10%. Also, the Herbicidal efficacy in [7] (POLCO 21 DAT, 100 g a.i./ha) is recorded as 0%; in experiment [7] (POLCO 21 DAT, 400 g a.i./ha) it was 0%. The “Herbicidal efficacy [%] against SOLNI 10 DAT” value with Solanum nigrum (SOLNI) (application rate 400 g a.i./ha) is 10%. The “Herbicidal efficacy [%] against SOLNI 21 DAT” value in the experiment on Solanum nigrum (SOLNI) (application rate 400 g a.i./ha) was 0%.
